# From patent publication US20210170033A1, “NOVEL CONJUGATES OF A PHARMACEUTICAL AGENT AND A MOIETY CAPABLE OF BINDING TO A GLUCOSE SENSING PROTEIN” (SANOFI, priority 2017, published 2021)
# pIC50: −log10 of the molar value.
# Test system: A2780 cells
# Assay: Deoxy-glucose uptake assay in A2780 cells (14C 2-deoxy-D-glucose transport)
# Format: cell-based
# Settings: Homo sapiens, 20 min; inhibition of 14C 2-deoxy-D-glucose transport into A2780 cells; 20 min compound incubation; read-out: IC50
# Experimental: 1. Deoxy-Glucose Uptake Assay in A2780 Cells:
# For measurement of ^14C 2-deoxy-D-glucose transport into A2780 cells, cells were seeded in 96-well plates (Cytostar-T Plates Perkin Elmer, 70,000 cells/180 μl/well) in medium complete (RPMI1640+Glutamax (Life technologies #61870)) and grown for 48 hours. After 48 h, cells were washed once with 180 μL KRB (Krebs Ringer Bicarbonate) buffer, and stimulated in a dose dependent manner by adding 10 μL of test compound dilution 0-1.1 mM (11 times higher concentration than final) or 10 μL of 1.1 mM Cytochalasin B solution as negative control, to 90 μL KRB buffer and incubated for 20 minutes. After compound stimulation, the transport of ^14C 2-deoxy-D-glucose was started by adding of 50 μL 2-^14C[U] 2-deoxy-D-glucose solution (109.1 μM 2-deoxy-D-glucose cold and 33 μM 2-^14C[U] 2-deoxy-D-glucose 0.1 μCi/well) for 20 minutes. Transport was stopped by adding 50 μL/well 96 μM Cytochalasin B solution. Plates were measured in a 96-well Wallac Microbeta device. The cpm (counts per minute) values were used to determine the % inhibition values for the test compounds within each experiment. In a first step, the mean background value generated by Cytochalasin B (a potent glucose transporter inhibitor) treated cells, was subtracted from the mean values of the treated cells. All mean values were obtained from triplicates. For %-Inhibition results, the mean value of the untreated cells (just KRB) was set as 100%. All other mean values were calculated to this relation. IC50 were obtained by regression analysis of dose response curve with 7 or 14 concentrations, respectively, for each compound.
row,Structure (SMILES),pIC50
1,C#CCCC(=O)Nc1cccc(COc2c(Cl)cc(C(=O)O[C@@H]3[C@@H](O)[C@@H](OC)O[C@H](CO)[C@H]3O)c(C)c2Cl)c1 [Example 205],4.56
2,CO[C@H]1O[C@H](CO)[C@@H](O)[C@H](O)[C@H]1NC(=O)c1cc(Cl)c(OCc2cccc(C(=O)OC(C)(C)C)c2)c(Cl)c1C [Example 209],5.60
3,COc1ncc(COc2c(Cl)cc(C(=O)N[C@H]3[C@@H](OC)O[C@H](CO)[C@@H](O)[C@@H]3O)c(C)c2Cl)cc1Cl [Example 210],6.22
4,CCn1c(COc2c(Cl)cc(C(=O)O[C@H]3[C@@H](OC)O[C@H](CO)[C@@H](O)[C@@H]3O)cc2OC)nc2ccc(Br)cc21 [Example 213],5.82
5,COc1cc(C(=O)O[C@H]2[C@@H](OC)O[C@H](CO)[C@@H](O)[C@@H]2O)cc(Cl)c1OCc1cnc(OC)c(Cl)c1 [Example 216],5.66
6,COc1cc(OCc2ccc(/C=C/C(=O)NCCCC(=O)OC(C)(C)C)cc2)c(Cl)cc1C(=O)N[C@H]1[C@@H](OC)O[C@H](CO)[C@@H](O)[C@@H]1O [Example 236],6.40
7,COc1cc(C(=O)N[C@H]2[C@@H](OC)O[C@H](CO)[C@@H](O)[C@@H]2O)cc(Cl)c1OCc1nc2ccccc2n1C(C)C [Example 238],4.66
8,CO[C@H]1O[C@H](CO)[C@@H](O)[C@H](O)[C@H]1NC(=O)c1cc(Cl)c(OCc2ccc3c(cnn3C)c2)c(Cl)c1C [Example 240],5.22
9,COC(=O)c1ccc(COc2c(Cl)cc(C(=O)N[C@H]3[C@@H](OC)O[C@H](CO)[C@@H](O)[C@@H]3O)c(C)c2Cl)cn1 [Example 245],4.20
10,COC(=O)c1cnc(COc2c(Cl)cc(C(=O)N[C@H]3[C@@H](OC)O[C@H](CO)[C@@H](O)[C@@H]3O)c(C)c2Cl)cn1 [Example 246],4.29
11,COC(=O)c1cnc(COc2c(Cl)cc(C(=O)O[C@H]3[C@@H](OC)O[C@H](CO)[C@@H](O)[C@@H]3O)c(C)c2Cl)cn1 [Example 253],5.15
12,CO[C@H]1O[C@H](CO)[C@@H](O)[C@H](O)[C@H]1OC(=O)c1cc(Cl)c(OCc2cn3c(C)cccc3n2)c(Cl)c1C [Example 255],6.52
13,CO[C@H]1O[C@H](CO)[C@@H](O)[C@H](O)[C@H]1NC(=O)c1cc(Cl)c(OCc2cn3c(C)cccc3n2)c(Cl)c1C [Example 256],5.96
14,COC(=O)c1cc(COc2c(Cl)cc(C(=O)N[C@H]3[C@@H](OC)O[C@H](CO)[C@@H](O)[C@@H]3O)c(C)c2Cl)ccc1Cl [Example 257],5.14
15,CO[C@H]1O[C@H](CO)[C@@H](O)[C@H](O)[C@H]1OC(=O)c1cc(Cl)c(OCc2cccc(CO)n2)c(Cl)c1C [Example 259],4.91
16,CO[C@H]1O[C@H](CO)[C@@H](O)[C@H](O)[C@H]1NC(=O)c1cc(Cl)c(OCc2ccc3c(c2)nnn3C)c(Cl)c1C [Example 260],4.12
17,CO[C@H]1O[C@H](CO)[C@@H](O)[C@H](O)[C@H]1OC(=O)c1cc(Cl)c(OCc2ccc3c(c2)nnn3C)c(Cl)c1C [Example 261],6.30
18,CCOC(=O)c1cccc(COc2c(Cl)cc(C(=O)N[C@H]3[C@@H](OC)O[C@H](CO)[C@@H](O)[C@@H]3O)c(C)c2Cl)n1 [Example 270],4.56

row,Structure (SMILES),pIC50
1,CCOC(=O)c1cccc(COc2c(Cl)cc(C(=O)O[C@H]3[C@@H](OC)O[C@H](CO)[C@@H](O)[C@@H]3O)c(C)c2Cl)n1 [Example 271],5.38
2,C#CCCC(=O)Nc1cc(COc2c(Cl)cc(C(=O)N[C@H]3[C@@H](OC)O[C@H](CO)[C@@H](O)[C@@H]3O)c(C)c2Cl)cnc1OC [Example 274],4.75
3,C#CCCCn1c(COc2c(Cl)cc(C(=O)O[C@@H]3[C@@H](O)[C@@H](OC)O[C@H](CO)[C@H]3O)c(C)c2Cl)nc2ccccc21 [Example 275],7.00
4,COc1cc(C(=O)O[C@H]2[C@@H](OC)O[C@H](CO)[C@@H](O)[C@@H]2O)cc(Cl)c1OCc1cccc(OCC(=O)OC(C)(C)C)c1 [Example 276],4.84
5,CO[C@H]1O[C@H](CO)[C@@H](O)[C@H](O)[C@H]1OC(=O)c1cc(Cl)c(OCc2cccc(CNC(=O)[C@H](CC(C)C)NC(=O)OC(C)(C)C)c2)c(Cl)c1C [Example 278],5.80
6,CO[C@H]1O[C@H](CO)[C@@H](O)[C@H](O)[C@H]1OC(=O)c1cc(Cl)c(OCc2cccc(CNC(=O)[C@H](CC(C)C)N(C)C(=O)OC(C)(C)C)c2)c(Cl)c1C [Example 279],5.47
7,C#CCCCn1c(COc2c(Cl)cc(C(=O)N[C@H]3[C@@H](OC)O[C@H](CO)[C@@H](O)[C@@H]3O)c(C)c2Cl)cc2ccccc21 [Example 280],5.23
8,CCOC(=O)c1nnsc1COc1c(Cl)cc(C(=O)O[C@H]2[C@@H](OC)O[C@H](CO)[C@@H](O)[C@@H]2O)c(C)c1Cl [Example 282],6.52
9,CCOC(=O)c1nnsc1COc1c(Cl)cc(C(=O)N[C@H]2[C@@H](OC)O[C@H](CO)[C@@H](O)[C@@H]2O)c(C)c1Cl [Example 283],5.17
10,COC(=O)c1ccc(COc2c(Cl)cc(C(=O)N[C@H]3[C@@H](OC)O[C@H](CO)[C@@H](O)[C@@H]3O)c(C)c2Cl)nc1 [Example 284],4.85
11,CO[C@H]1O[C@H](CO)[C@@H](O)[C@H](O)[C@H]1OC(=O)c1cc(Cl)c(OCc2cccc(CNC(=O)[C@@H](N)CC(C)C)c2)c(Cl)c1C [Example 285],4.63
12,CN[C@@H](CC(C)C)C(=O)NCc1cccc(COc2c(Cl)cc(C(=O)O[C@H]3[C@@H](OC)O[C@H](CO)[C@@H](O)[C@@H]3O)c(C)c2Cl)c1 [Example 286],5.32
13,CO[C@H]1O[C@H](CO)[C@@H](O)[C@H](O)[C@H]1NC(=O)c1cc(Cl)c(OCc2ccc(C(=O)OC(C)(C)C)cc2)c(Cl)c1C [Example 296],5.12
14,CO[C@H]1O[C@H](CO)[C@@H](O)[C@H](O)[C@H]1NC(=O)c1cc(Cl)c(OCc2nc3ccccc3n2CCCCCC(=O)OC(C)(C)C)c(Cl)c1C [Example 301],7.00
15,COc1ncc(COc2c(Cl)cc(C(=O)N[C@H]3[C@@H](OC)O[C@H](CO)[C@@H](O)[C@@H]3O)c(C)c2Cl)cc1NCC(=O)OC(C)(C)C [Example 303],6.70
16,CO[C@H]1O[C@H](CO)[C@@H](O)[C@H](O)[C@H]1NC(=O)c1cc(Cl)c(OCc2cccc(OCC(=O)OC(C)(C)C)c2)c(Cl)c1C [Example 307],4.62
17,COC(=O)CCCCCNC(=O)c1cccc(COc2c(Cl)cc(C(=O)N[C@H]3[C@@H](OC)O[C@H](CO)[C@@H](O)[C@@H]3O)c(C)c2Cl)c1 [Example 323],4.55

# Results, then the compound that gave them:
row,pIC50,Structure (SMILES)
1,5.96,COc1ncc(COc2c(Cl)cc(C(=O)O[C@H]3[C@@H](OC)O[C@H](CO)[C@@H](O)[C@@H]3O)c(C)c2Cl)cc1Cl [Example 215]
2,4.61,COc1cccc(CCOc2c(Cl)cc(C(=O)O[C@H]3[C@@H](OC)O[C@H](CO)[C@@H](O)[C@@H]3O)c(C)c2Cl)c1 [Example 241]
3,4.70,CO[C@H]1O[C@H](CO)[C@@H](O)[C@H](O)[C@H]1OC(=O)c1cc(Cl)c(OCCc2cccc(Cl)c2)c(Cl)c1C [Example 242]
4,4.56,CO[C@H]1O[C@H](CO)[C@@H](O)[C@H](O)[C@H]1OC(=O)c1cc(Cl)c(OCCc2ccc(C)cc2)c(Cl)c1C [Example 243]
5,4.65,CO[C@H]1O[C@H](CO)[C@@H](O)[C@H](O)[C@H]1OC(=O)c1cc(Cl)c(OCCc2ccc(Cl)cc2)c(Cl)c1C [Example 244]
6,5.19,COC(=O)c1ccc(COc2c(Cl)cc(C(=O)O[C@H]3[C@@H](OC)O[C@H](CO)[C@@H](O)[C@@H]3O)c(C)c2Cl)cn1 [Example 252]
7,6.00,COC(=O)c1cc(COc2c(Cl)cc(C(=O)O[C@H]3[C@@H](OC)O[C@H](CO)[C@@H](O)[C@@H]3O)c(C)c2Cl)ccc1Cl [Example 262]
8,4.87,CO[C@H]1O[C@H](CO)[C@@H](O)[C@H](O)[C@H]1OC(=O)c1cc(Cl)c(OCc2cccc(C(=O)OC(C)(C)C)c2)c(Cl)c1C [Example 269]
9,5.66,CO[C@H]1O[C@H](CO)[C@@H](O)[C@H](O)[C@H]1NC(=O)c1cc(Cl)c(OCc2ccccc2)cc1C [Example 297]
10,4.57,COc1c(C(=O)O[C@H]2[C@@H](OC)O[C@H](CO)[C@@H](O)[C@@H]2O)ccc(OCc2ccccc2)c1Cl [Example 298]
11,4.34,COC(=O)/C=C/c1ccc(COc2c(Cl)cc(C(=O)O[C@H]3[C@@H](OC)O[C@H](CO)[C@@H](O)[C@@H]3O)cc2OC)cc1 [Example 299]
12,5.16,CO[C@H]1O[C@H](CO)[C@@H](O)[C@H](O)[C@H]1OC(=O)c1cc(Cl)c(OCc2ccccc2)cc1C [Example 300]
13,4.83,COC(=O)/C=C/c1ccc(COc2c(Cl)cc(C(=O)O[C@H]3[C@@H](OC)O[C@H](CO)[C@@H](O)[C@@H]3O)c(C)c2Cl)cc1 [Example 317]
14,4.50,COc1c(C(=O)N[C@H]2[C@H](OC)O[C@H](CO)[C@@H](O)[C@@H]2O)cc(Cl)c(OCc2ccccc2)c1Cl [Example 332]
15,4.54,COc1cc(C(=O)N[C@H]2[C@H](OC)O[C@H](CO)[C@@H](O)[C@@H]2O)cc(Cl)c1OCCc1ccccc1 [Example 333]
16,4.51,CO[C@@H]1O[C@H](CO)[C@@H](O)[C@H](O)[C@H]1NC(=O)c1cc(Cl)cc(OCc2ccccc2)c1 [Example 334]
